Measurements reported in patent US9242987B2, “Heterocyclyl pyrazolopyrimidine analogues as JAK inhibitors” (Cellzome Limited, priority 2009, dated 2016).
Counter-ions that a name gives are not always drawn.

Tests used:
[1] = molecular target: T1, JAK2 (Homo sapiens, UniProt O60674); assay: Kinobeads assay, JAK2; type: binding; details: mixed Molt4/Ramos cell lysate, dot blot detection
T1 construct: endogenous in cells; host or cells: Mixed Molt4/Ramos lysate (1:2)
In short: (§1)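 Lysate from Molt4 and Ramos cells combined 1:2 at 10 mg/mL total protein met test compound and an aminopyrido-pyrimidine affinity matrix for 3 h in the cold. Captured JAK2 and JAK3, after elution, were measured by specific-antibody dot blot on an infrared system; dose-response curves yielded IC50.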

[2] = molecular target: T2, JAK3 (Homo sapiens, UniProt P52333); assay: Kinobeads assay, JAK3; type: binding; details: mixed Molt4/Ramos cell lysate, dot blot detection
T2 construct: endogenous in cells; host or cells: Mixed Molt4/Ramos lysate (1:2)
T2 sequence (P52333 1-1124): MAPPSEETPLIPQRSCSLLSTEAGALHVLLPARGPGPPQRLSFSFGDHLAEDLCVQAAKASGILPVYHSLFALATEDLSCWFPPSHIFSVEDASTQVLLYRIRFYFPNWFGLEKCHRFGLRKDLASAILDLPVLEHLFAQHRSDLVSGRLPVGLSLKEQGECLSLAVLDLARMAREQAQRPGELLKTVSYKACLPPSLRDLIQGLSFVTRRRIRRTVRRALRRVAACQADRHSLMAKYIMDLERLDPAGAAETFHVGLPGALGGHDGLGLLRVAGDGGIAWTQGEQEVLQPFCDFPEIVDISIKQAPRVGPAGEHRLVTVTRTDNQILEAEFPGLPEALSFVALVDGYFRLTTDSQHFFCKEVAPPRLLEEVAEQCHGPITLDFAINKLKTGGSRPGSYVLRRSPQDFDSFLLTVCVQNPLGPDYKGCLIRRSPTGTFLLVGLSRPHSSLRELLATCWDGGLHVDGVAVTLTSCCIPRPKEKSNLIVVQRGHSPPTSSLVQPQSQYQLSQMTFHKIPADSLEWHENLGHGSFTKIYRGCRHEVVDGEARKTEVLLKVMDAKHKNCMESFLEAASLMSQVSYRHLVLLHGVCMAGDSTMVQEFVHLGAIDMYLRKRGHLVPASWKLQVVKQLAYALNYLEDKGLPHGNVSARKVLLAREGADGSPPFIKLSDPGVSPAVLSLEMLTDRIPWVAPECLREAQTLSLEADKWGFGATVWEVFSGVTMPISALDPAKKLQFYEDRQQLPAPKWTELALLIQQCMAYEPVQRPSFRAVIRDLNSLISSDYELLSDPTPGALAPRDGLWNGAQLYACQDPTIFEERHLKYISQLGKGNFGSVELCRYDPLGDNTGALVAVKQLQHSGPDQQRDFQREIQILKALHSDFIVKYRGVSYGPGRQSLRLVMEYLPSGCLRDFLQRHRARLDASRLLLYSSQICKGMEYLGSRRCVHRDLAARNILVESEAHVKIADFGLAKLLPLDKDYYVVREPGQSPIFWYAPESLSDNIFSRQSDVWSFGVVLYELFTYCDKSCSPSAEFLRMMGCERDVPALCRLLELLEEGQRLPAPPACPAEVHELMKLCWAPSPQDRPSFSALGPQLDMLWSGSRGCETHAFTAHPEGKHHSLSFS
In short: as §1

T1 sequence (O60674 whole entry): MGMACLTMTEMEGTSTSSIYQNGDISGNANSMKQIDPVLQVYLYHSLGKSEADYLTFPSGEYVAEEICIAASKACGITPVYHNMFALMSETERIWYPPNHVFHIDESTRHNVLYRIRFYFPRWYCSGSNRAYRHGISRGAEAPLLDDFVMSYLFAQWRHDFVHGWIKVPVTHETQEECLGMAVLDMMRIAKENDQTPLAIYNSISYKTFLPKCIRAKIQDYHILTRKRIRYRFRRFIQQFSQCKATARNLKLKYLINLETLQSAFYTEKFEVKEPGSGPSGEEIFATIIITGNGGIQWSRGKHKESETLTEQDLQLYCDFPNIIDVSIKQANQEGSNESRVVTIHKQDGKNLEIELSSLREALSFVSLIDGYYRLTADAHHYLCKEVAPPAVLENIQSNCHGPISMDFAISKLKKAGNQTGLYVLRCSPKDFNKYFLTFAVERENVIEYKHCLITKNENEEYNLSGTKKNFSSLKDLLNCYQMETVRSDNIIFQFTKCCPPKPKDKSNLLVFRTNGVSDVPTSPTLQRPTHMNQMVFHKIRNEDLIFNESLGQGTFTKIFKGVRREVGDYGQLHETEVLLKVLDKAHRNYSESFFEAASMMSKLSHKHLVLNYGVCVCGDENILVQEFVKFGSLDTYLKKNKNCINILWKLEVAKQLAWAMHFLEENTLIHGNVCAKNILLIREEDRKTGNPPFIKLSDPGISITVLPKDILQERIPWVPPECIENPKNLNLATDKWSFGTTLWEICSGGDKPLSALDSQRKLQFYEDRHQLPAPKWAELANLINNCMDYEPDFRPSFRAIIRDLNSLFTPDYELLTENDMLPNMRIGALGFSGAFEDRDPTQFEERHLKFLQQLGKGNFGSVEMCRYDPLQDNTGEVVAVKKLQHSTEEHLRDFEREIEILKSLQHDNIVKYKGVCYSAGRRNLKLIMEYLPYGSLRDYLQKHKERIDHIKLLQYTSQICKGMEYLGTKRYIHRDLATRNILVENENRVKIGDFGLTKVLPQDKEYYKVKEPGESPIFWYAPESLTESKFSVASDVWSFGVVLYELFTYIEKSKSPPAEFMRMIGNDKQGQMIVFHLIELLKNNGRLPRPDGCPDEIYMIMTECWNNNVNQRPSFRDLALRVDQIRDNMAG

Structure (SMILES)	IC50 [1]	IC50 [2]
CC(C)S(=O)(=O)Nc1ccccc1Cn1ncc2cnc(Nc3cnn(C)c3)nc21 [Example 126, N-(2-((6-((1-Methyl-1H-pyrazol-4-yl)amino)-1H-pyrazolo[3,4-d]pyrimidin-1-yl)methyl)phenyl)propane-2-sulfonamide]	1000 to 10000 nM	< 100 nM
NS(=O)(=O)c1ccc(-n2ncc3cnc(Nc4cnn(CC(F)F)c4)nc32)cc1 [Example 127, 4-(6-((1-(2,2-Difluoroethyl)-1H-pyrazol-4-yl)amino)-1H-pyrazolo[3,4-d]pyrimidin-1-yl)benzenesulfonamide]	1000 to 10000 nM	100 to 1000 nM
Fc1ccccc1Cn1ncc2cnc(Nc3cnn(CC(F)F)c3)nc21 [Example 128, N-(1-(2,2-Difluoroethyl)-1H-pyrazol-4-yl)-1-(2-fluorobenzyl)-1H-pyrazolo[3,4-d]pyrimidin-6-amine]	1000 to 10000 nM	< 100 nM
Fc1ccc(F)c(Cn2ncc3cnc(Nc4cnn(CC(F)F)c4)nc32)c1 [Example 129, 1-(2,5-Difluorobenzyl)-N-(1-(2,2-difluoroethyl)-1H-pyrazol-4-yl)-1H-pyrazolo[3,4-d]pyrimidin-6-amine]	100 to 1000 nM	< 100 nM
N#Cc1ccc(F)cc1Cn1ncc2cnc(Nc3cnn(CC(F)F)c3)nc21 [Example 130, 2-((6-((1-(2,2-Difluoroethyl)-1H-pyrazol-4-yl)amino)-1H-pyrazolo[3,4-d]pyrimidin-1-yl)methyl)-4-fluorobenzonitrile]	100 to 1000 nM	< 100 nM
CS(=O)(=O)Nc1ccccc1Cn1ncc2cnc(Nc3cnn(CC(F)F)c3)nc21 [Example 131, N-(2-((6-((1-(2,2-Difluoroethyl)-1H-pyrazol-4-yl)amino)-1H-pyrazolo[3,4-d]pyrimidin-1-yl)methyl)phenyl)methanesulfonamide hydrochloride]	100 to 1000 nM	< 100 nM
COCCOc1cccc(Cn2ncc3cnc(Nc4cnn(C)c4)nc32)c1 [Example 132, 1-(3-(2-Methoxyethoxy)benzyl)-N-(1-methyl-1H-pyrazol-4-yl)-1H-pyrazolo[3,4-d]pyrimidin-6-amine]	≥ 10000 nM	< 100 nM
CNC(=O)Cn1cc(Nc2ncc3cnn(Cc4ccccc4)c3n2)cn1 [Example 133, 2-(4-((1-Benzyl-1H-pyrazolo[3,4-d]pyrimidin-6-yl)amino)-1H-pyrazol-1-yl)-N-methylacetamide]	1000 to 10000 nM	< 100 nM
Cn1cc(Nc2ncc3cnn(Cc4ccccc4NS(=O)(=O)CC(F)(F)F)c3n2)cn1 [Example 134]	1000 to 10000 nM	< 100 nM
Cn1cc(Nc2ncc3cnn(-c4ccc(C(N)=O)cc4)c3n2)cn1 [Example 135, 4-(6-((1-Methyl-1H-pyrazol-4-yl)amino)-1H-pyrazolo[3,4-d]pyrimidin-1-yl)benzamide]	1000 to 10000 nM	100 to 1000 nM
CNC(=O)c1ccc(-n2ncc3cnc(Nc4cnn(C)c4)nc32)cc1 [Example 136, N-methyl-4-(6-((1-methyl-1H-pyrazol-4-yl)amino)-1H-pyrazolo[3,4-d]pyrimidin-1-yl)benzamide]	1000 to 10000 nM	100 to 1000 nM
Cn1cc(Nc2ncc3cnn(-c4ccc(C(=O)N5CCOCC5)cc4)c3n2)cn1 [Example 137, (4-(6-((1-Methyl-1H-pyrazol-4-yl)amino)-1H-pyrazolo[3,4-d]pyrimidin-1-yl)phenyl)(morpholino)methanone]	100 to 1000 nM	< 100 nM
Cn1cc(Nc2ncc3cnn(-c4ccc(S(N)(=O)=O)c(F)c4)c3n2)cn1 [Example 138, 2-Fluoro-4-(6-((1-methyl-1H-pyrazol-4-yl)amino)-1H-pyrazolo[3,4-d]pyrimidin-1-yl)benzenesulfonamide]	1000 to 10000 nM	100 to 1000 nM
Cn1cc(Nc2ncc3cnn(-c4ccc(S(=O)(=O)NCCO)cc4)c3n2)cn1 [Example 139, N-(2-Hydroxyethyl)-4-(6-((1-methyl-1H-pyrazol-4-yl)amino)-1H-pyrazolo[3,4-d]pyrimidin-1-yl)benzenesulfonamide]	1000 to 10000 nM	100 to 1000 nM
